Measured values taken from the supplement of paper PMC10307832.

Assays:
Assay in all cases: relative viability (nuclei count vs DMSO), 5 days (fraction); higher = more cells survive
[1] = compound: C1=CC=C2C(=C1)C=CC(=C2SSC3=C(C=CC4=CC=CC=C43)O)O [IPA-3] + CC(=O)c1c(C)c2cnc(Nc3ccc(N4CCNCC4)cn3)nc2n(C2CCCC2)c1=O [Palbociclib] (partner 0.5 µM)
How it was run: (§1)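 Lung cancer cell lines in 1536-well plates were dosed by pin tool the day after seeding, either with one drug alone or with a fixed anchor-drug dose plus five library-drug doses (not always all listed) in √10 steps. After 5 days, cells were fixed and their nuclei stained in one step (final 0.05% Triton X-100, 1% formaldehyde, 1 ug/ml Hoechst), then counted on 4× images. Relative viability is the nuclei count in treated wells divided by that in vehicle wells. Values are medians of duplicate plates.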

[2] = compound: Cc1ccc(-n2nc(C(C)(C)C)cc2NC(=O)Nc2ccc(OCCN3CCOCC3)c3ccccc23)cc1 [Doramapimod] + Cc1cc(Nc2cc(N3CCN(C)CC3)nc(Sc3ccc(NC(=O)C4CC4)cc3)n2)n[nH]1 [Tozasertib] (partner 0.1 µM)
How it was run: as §1

[3] = compound: Cn1c(Nc2ccc(C(F)(F)F)cc2)nc2cc(Oc3ccnc(-c4ncc(C(F)(F)F)[nH]4)c3)ccc21 [RAF265] + CC1(C)CCC(c2ccc(Cl)cc2)=C(CN2CCN(c3ccc(C(=O)NS(=O)(=O)c4ccc(N[C@H](CCN5CCOCC5)CSc5ccccc5)c(S(=O)(=O)C(F)(F)F)c4)cc3)CC2)C1 [Navitoclax] (partner 0.5 µM)
How it was run: as §1

[4] = compound: Cn1c(Nc2ccc(C(F)(F)F)cc2)nc2cc(Oc3ccnc(-c4ncc(C(F)(F)F)[nH]4)c3)ccc21 [RAF265] + NC(=O)Nc1cc(-c2cccc(F)c2)sc1C(=O)N[C@H]1CCCNC1 [AZD7762] (partner 0.2 µM)
How it was run: as §1

Cell Line	relative viability ([1]; first compound 0.2 µM)	relative viability ([1]; first compound 0.6325 µM)	relative viability ([1]; first compound 2 µM)	relative viability ([1]; first compound 6.325 µM)	relative viability ([1]; first compound 20 µM)	relative viability ([2]; first compound 0.02 µM)	relative viability ([2]; first compound 0.06325 µM)	relative viability ([2]; first compound 0.2 µM)	relative viability ([2]; first compound 0.6325 µM)	relative viability ([2]; first compound 2 µM)	relative viability ([3]; first compound 0.01 µM)	relative viability ([3]; first compound 0.03162 µM)	relative viability ([3]; first compound 0.1 µM)	relative viability ([3]; first compound 0.3162 µM)	relative viability ([3]; first compound 1 µM)	relative viability ([4]; first compound 0.01 µM)	relative viability ([4]; first compound 0.03162 µM)	relative viability ([4]; first compound 0.1 µM)	relative viability ([4]; first compound 0.3162 µM)	relative viability ([4]; first compound 1 µM)
201T	0.363	0.38	0.391	0.342	0.388	0.914	0.918	0.935	1.05	0.906	1.23	1.2	1.23	1.27	1.28	0.596	0.578	0.653	0.668	0.783
A-427	0.531	0.499	0.511	0.515	0.52	0.248	0.216	0.218		0.189	0.929	0.678	0.96	0.579	0.272	0.798	0.746	0.641	0.448	0.247
BEN	0.432	0.471	0.43	0.532	0.457	0.533	0.402	0.499	0.325	0.429	0.0592	0.0731	0.0721	0.0801	0.0649	0.675	0.805	0.837	0.674	0.661
CAL-12T	0.718	0.342	0.404	0.28	0.421	0.298	0.341	0.338	0.272	0.315	1.28	1.01	0.861	0.757	0.523	0.56	0.631	0.678	0.598	0.504
ChaGo-K-1	0.952	0.824	0.923	0.955	1.02	0.225	0.227	0.229	0.215	0.217	1.1	1	1.03	1.04	0.823	0.708	0.877	0.812	0.767	0.709
EKVX	0.352	0.418	0.34	0.456	0.409	0.324	0.385	0.43	0.336	0.341	0.939	0.916	0.957	0.606	0.637	0.685	0.777	0.706	0.412	0.298
EMC-BAC-2	0.537	0.509	0.527	0.516	0.532	0.284	0.286	0.272	0.304	0.238	1.11	1.06	1.05	0.941	0.612	1.09	1.03	0.675	0.724	0.486
EPLC-272H	0.31	0.38	0.316	0.304	0.327	0.319	0.275	0.441	0.29	0.246	1.03	0.98	0.851	0.503	0.383	0.213	0.181	0.223	0.161	0.15
